In PubChem BioAssay (NCI):
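Step 1: Grow cells in 96-well plates. Step 2: Expose to compound for 48 hours at 5 concentrations. Step 3: Interpolate endpoints linearly; if unreached, use highest concentration. The concentration for full growth arrest is given as TGI.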

Key:
Experiment in all cases: inhibition of tumour cell growth, NCI panel, 48 h
[1] = system: MOLT-4 leukemia
[2] = system: OVCAR-8 ovarian
[3] = system: HCC-2998 colon
[4] = system: EKVX NSCLC
[5] = system: PC-3 prostate
[6] = system: DU-145 prostate
[7] = system: BT-549 breast
[8] = system: HL-60(TB) leukemia
[9] = system: HOP-92 NSCLC
[10] = system: A549 NSCLC
[11] = system: KM12 colon
[12] = system: NCI-H226 lung
[13] = system: NCI-H23 lung
[14] = system: NCI-H460 lung
[15] = system: T-47D breast
[16] = system: UO-31 renal
[17] = system: MDA-MB-435
[18] = system: SK-MEL-28 melanoma
[19] = system: HT29 colon
[20] = system: HCT-116 colon
[21] = system: U251 CNS
[22] = system: SF-539 CNS
[23] = system: TK-10 renal
[24] = system: IGROV1 ovarian
[25] = system: UACC-257 melanoma
[26] = system: SNB-19 CNS
[27] = system: SF-295 CNS
[28] = system: SK-MEL-2 melanoma
[29] = system: ACHN renal
[30] = system: CAKI-1 renal
[31] = system: MCF7 breast
[32] = system: MDA-MB-231 breast
[33] = system: LOX IMVI melanoma
[34] = system: SN12C renal
[35] = system: COLO 205 colon
[36] = system: MDA-N
[37] = system: NCI/ADR-RES ovarian
[38] = system: SNB-75 CNS
[39] = system: HCT-15 colon
[40] = system: 786-0 renal
[41] = system: UACC-62 melanoma
[42] = system: SK-OV-3 ovarian
[43] = system: OVCAR-5 ovarian
[44] = system: SK-MEL-5 melanoma
[45] = system: HOP-62 NSCLC
[46] = system: OVCAR-4 ovarian
[47] = system: M14 melanoma
[48] = system: SW-620 colon
[49] = system: OVCAR-3 ovarian
[50] = system: RXF 393 renal
[51] = system: RPMI-8226 leukemia
[52] = system: MALME-3M melanoma
[53] = system: NCI-H522 lung
[54] = system: SR leukemia
[55] = system: A498 renal
[56] = system: CCRF-CEM leukemia
[57] = system: K-562 leukemia
[58] = system: SF-268 CNS

O=c1[nH]c2ccccc2c(O)c1/C=N/C(=S)NCCc1ccccc1
TGI [1]: > 100 µM | TGI [2]: > 100 µM | TGI [3]: > 100 µM | TGI [4]: > 100 µM | TGI [5]: > 100 µM | TGI [6]: > 100 µM | TGI [7]: > 100 µM | TGI [8]: > 100 µM | TGI [9]: > 100 µM | TGI [10]: > 100 µM | TGI [11]: > 100 µM | TGI [12]: > 100 µM | TGI [13]: > 100 µM | TGI [14]: > 100 µM | TGI [15]: > 100 µM | TGI [16]: > 100 µM | TGI [17]: > 100 µM | TGI [18]: > 100 µM | TGI [19]: > 100 µM | TGI [20]: > 100 µM | TGI [21]: > 100 µM | TGI [22]: > 100 µM | TGI [23]: > 100 µM | TGI [24]: > 100 µM | TGI [25]: > 100 µM | TGI [26]: > 100 µM | TGI [27]: > 100 µM | TGI [28]: > 100 µM | TGI [29]: > 100 µM | TGI [30]: > 100 µM | TGI [31]: > 100 µM | TGI [32]: > 100 µM | TGI [33]: > 100 µM | TGI [34]: > 100 µM | TGI [35]: > 100 µM | TGI [36]: > 100 µM | TGI [37]: > 100 µM | TGI [38]: > 100 µM | TGI [39]: > 100 µM | TGI [40]: > 100 µM | TGI [41]: > 100 µM | TGI [42]: > 100 µM | TGI [43]: > 100 µM | TGI [44]: > 100 µM | TGI [45]: > 100 µM | TGI [46]: > 100 µM | TGI [47]: > 100 µM | TGI [48]: > 100 µM | TGI [49]: > 100 µM

N#CC(C#N)N=Nc1ccc(-c2nc3ccccc3s2)cc1
TGI [1]: 3.68 µM | TGI [2]: 43.8 µM | TGI [4]: 22.8 µM | TGI [50]: 15.8 µM | TGI [5]: 10.1 µM | TGI [6]: 19.6 µM | TGI [7]: 19.2 µM | TGI [9]: 4.64 µM | TGI [13]: 8.72 µM | TGI [15]: 8.21 µM | TGI [16]: 21.8 µM | TGI [17]: 39.9 µM | TGI [18]: 35.9 µM | TGI [51]: 3.4 µM | TGI [19]: 20.4 µM | TGI [20]: 13.6 µM | TGI [22]: 25.8 µM | TGI [23]: 11.3 µM | TGI [52]: 7.99 µM | TGI [24]: 22.2 µM | TGI [25]: 11.2 µM | TGI [53]: 7.8 µM | TGI [54]: 10.3 µM | TGI [28]: 16.7 µM | TGI [29]: 15.2 µM | TGI [30]: 20.7 µM | TGI [31]: 14.9 µM | TGI [33]: 20.4 µM | TGI [34]: 10.8 µM | TGI [35]: 14 µM | TGI [36]: 63.1 µM | TGI [37]: 15.2 µM | TGI [38]: 54.8 µM | TGI [39]: 13.5 µM | TGI [40]: 22 µM | TGI [55]: 23.8 µM | TGI [43]: 50.5 µM | TGI [44]: 9.37 µM | TGI [46]: 78.6 µM | TGI [47]: 32.1 µM | TGI [48]: 22.7 µM

C/C1=C\CC[C@@]2(C)O[C@@H]2C[C@@H]2[C@H](C/C(C)=C/CC1)OC(=O)C21CC1
TGI [1]: 61.2 µM | TGI [2]: > 100 µM | TGI [3]: > 100 µM | TGI [4]: > 100 µM | TGI [50]: > 100 µM | TGI [5]: > 100 µM | TGI [6]: > 100 µM | TGI [7]: > 100 µM | TGI [8]: 93.7 µM | TGI [10]: > 100 µM | TGI [11]: > 100 µM | TGI [14]: > 100 µM | TGI [15]: > 100 µM | TGI [16]: > 100 µM | TGI [17]: > 100 µM | TGI [18]: > 100 µM | TGI [51]: 46.3 µM | TGI [19]: > 100 µM | TGI [20]: > 100 µM | TGI [21]: > 100 µM | TGI [22]: > 100 µM | TGI [23]: > 100 µM | TGI [52]: > 100 µM | TGI [24]: 72.7 µM | TGI [25]: > 100 µM | TGI [26]: > 100 µM | TGI [27]: > 100 µM | TGI [54]: 48 µM | TGI [28]: > 100 µM | TGI [29]: > 100 µM | TGI [30]: > 100 µM | TGI [31]: > 100 µM | TGI [32]: > 100 µM | TGI [34]: > 100 µM | TGI [35]: > 100 µM | TGI [36]: > 100 µM | TGI [37]: > 100 µM | TGI [38]: > 100 µM | TGI [39]: > 100 µM | TGI [40]: > 100 µM | TGI [41]: > 100 µM | TGI [42]: > 100 µM | TGI [56]: 65.8 µM | TGI [55]: > 100 µM | TGI [43]: > 100 µM | TGI [44]: > 100 µM | TGI [57]: 66.2 µM | TGI [45]: > 100 µM | TGI [47]: > 100 µM | TGI [58]: > 100 µM | TGI [48]: > 100 µM | TGI [49]: > 100 µM
